Data reported in patent US8673915B2, “P 2×4 receptor antagonist” (Nippon Chemiphar Co., Ltd., priority 2010, dated 2014).
Structures can show the parent of a compound that is named as a salt.

Molecular target: T1, P2X4 receptor (Homo sapiens, UniProt Q99571)
T1 sequence (Q99571 1-388): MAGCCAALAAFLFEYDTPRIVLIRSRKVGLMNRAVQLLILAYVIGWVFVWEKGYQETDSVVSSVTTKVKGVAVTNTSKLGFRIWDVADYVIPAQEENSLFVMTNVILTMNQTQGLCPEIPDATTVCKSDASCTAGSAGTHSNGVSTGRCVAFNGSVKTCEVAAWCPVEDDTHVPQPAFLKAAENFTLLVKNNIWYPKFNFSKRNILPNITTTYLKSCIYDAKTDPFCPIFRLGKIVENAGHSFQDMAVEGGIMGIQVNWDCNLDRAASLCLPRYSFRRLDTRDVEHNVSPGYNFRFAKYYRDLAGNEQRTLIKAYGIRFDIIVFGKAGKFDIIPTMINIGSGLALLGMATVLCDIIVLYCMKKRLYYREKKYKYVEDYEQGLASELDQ
Experiment: Intracellular calcium assay (Fura-2 AM) of ATP-induced calcium influx in 1321N1 cells stably expressing human P2X4 receptors
Type: cell-based
Details: Table 25, Example 30; 1321N1 cells expressing human P2X4; compounds added 15 minutes before ATP; Fura-2 340/380 nm ratio; read-out: IC50 (P2X4 receptor antagonism)
Procedure: 1321N1 cells stably expressing human P2X4 receptors were plated in 96-well assay plate and cultured 24 hours at 37° C. in an atmosphere of 5% CO2 for intracellular calcium assay. Fura-2 AM calcium fluorescent indicator was used for the intracellular calcium assay. Fura-2 AM was dissolved in an assay buffer, and the solution was loaded onto cells. The obtained plate was used for fluorescent assay. Test compounds were treated to cells 15 minutes before the addition of ATP, and the response to intracellular calcium influx induced by addition of ATP was monitored by a micro plate reader. The fluorescence ratio of excitations wavelengths of 340 nm and 380 nm was used as the index of intracellular calcium change. The inhibition activities of the test compounds were calculated by comparison with the absence of the test compound (control).
P2X4 receptor antagonism of the compound of the present invention was measured as described below.
P2X4 receptor antagonism of the compound of the present invention was measured in the same manner as in Example 30.

Q: For `O=c1[nH]c2c3ccccc3ccc2n(-c2cccc(-c3nnn[nH]3)c2)c1=O` [Example 2, 4-[3-(1H-Tetrazol-5-yl)phenyl]-1,4-dihydrobenzo[f]quinoxaline-2,3-dione sodium salt], which IC50 is on record?
A: Its IC50 is 460 nM.

Q: With `COc1cccc(-n2c(=O)c(=O)[nH]c3c4ccccc4ccc32)c1` [Example 3, 4-(3-Methoxyphenyl)-1,4-dihydrobenzo[f]quinoxaline-2,3-dione] as the compound, how does the IC50 read?
A: The IC50 was 6600 nM.

Q: With `Nc1cccc(-n2c(=O)c(=O)[nH]c3c4c(ccc32)CCCC4)c1` [Example 7, 4-(3-Aminophenyl)-1,4,7,8,9,10-hexahydrobenzo[f]quinoxaline-2,3-dione hydrochloride] as the compound, how does the IC50 read?
A: The IC50 was 5100 nM.

Q: For `O=c1[nH]c2c3c(ccc2n(-c2cccc(NS(=O)(=O)c4ccccc4[N+](=O)[O-])c2)c1=O)CCCC3` [Example 9, N-[3-(2,3-Dioxo-2,3,7,8,9,10-hexahydrobenzo[f]quinoxalin-4(1H)-yl)phenyl]-2-nitrobenzenesulfonamide], which IC50 is on record?
A: The IC50 was 2100 nM.

Same assay, conditions: Table 26, Example 31; same manner as in Example 30; read-out: IC50 (P2X4 receptor antagonism)

Q: Which IC50 does the source give for `Nc1cccc(-n2c(=O)c(=O)[nH]c3c4ccccc4ccc32)c1` [Example 13, 4-(3-Aminophenyl)-1,4-dihydrobenzo[f]quinoxaline-2,3-dione hydrochloride] here?
A: The IC50 was 2100 nM.

Q: For `O=C(Cc1ccccc1I)Nc1cccc(-n2c(=O)c(=O)[nH]c3c4ccccc4ccc32)c1` [Example 14, 4-[3-[(2-Iodophenylacetyl)amino]phenyl)-1,4-dihydrobenzo[f]quinoxaline-2,3-dione], which IC50 is on record?
A: Its IC50 is 880 nM.

Q: Which IC50 does the source give for `Cc1nnc(-c2cccc(-n3c(=O)c(=O)[nH]c4c5ccccc5ccc43)c2)o1` [Example 15, 4-[3-(5-Methyl-[1,3,4]oxadiazol-2-yl)phenyl]-1,4-dihydrobenzo[f]quinoxaline-2,3-dione] here?
A: Its IC50 is 6700 nM.

Q: Which IC50 does the source give for `O=c1[nH]c2c3ccccc3ccc2n(-c2ccc(O)cc2)c1=O` [Example 17, 4-(4-Hydroxyphenyl)-1,4-dihydrobenzo[f]quinoxaline-2,3-dione sodium salt] here?
A: Its IC50 is 2700 nM.

Q: Which IC50 does the source give for `Nc1ccc(-n2c(=O)c(=O)[nH]c3c4ccccc4ccc32)cc1` [Example 18, 4-(4-Aminophenyl)-1,4-dihydrobenzo[f]quinoxaline-2,3-dione hydrochloride] here?
A: The IC50 was 5700 nM.

Q: With `O=C(Nc1cccc(-n2c(=O)c(=O)[nH]c3c4c(ccc32)CCCC4)c1)c1ccccc1C(F)(F)F` [Example 21] as the compound, how does the IC50 read?
A: The IC50 was 7700 nM.

Q: With `O=c1[nH]c2c3c(ccc2n(-c2cccc(NS(=O)(=O)c4ccccc4)c2)c1=O)CCCC3` [Example 22, N-[3-(2,3-Dioxo-2,3,7,8,9,10-hexahydro-1H-benzo[f]quinoxalin-4-yl)phenyl]benzenesulfonamide] as the compound, how does the IC50 read?
A: Its IC50 is 800 nM.

Q: Which IC50 does the source give for `O=c1[nH]c2c3c(ccc2n(-c2cccc(NS(=O)(=O)c4cccc(Br)c4)c2)c1=O)CCCC3` [Example 23, 3-Bromo-N-[3-(2,3-dioxo-2,3,7,8,9,10-hexahydro-1H-benzo[f]quinoxalin-4-yl)phenyl]benzenesulfonamide] here?
A: Its IC50 is 1300 nM.

Q: For `O=c1[nH]c2c3c(ccc2n(-c2cccc(NS(=O)(=O)c4cccc5ccccc45)c2)c1=O)CCCC3` [Example 24, N-[3-(2,3-Dioxo-2,3,7,8,9,10-hexahydro-1H-benzo[f]quinoxalin-4-yl)phenyl]-1-naphthalenesulfonamide], which IC50 is on record?
A: The IC50 was 2600 nM.

Q: With `O=c1[nH]c2c3c(ccc2n(-c2cccc(NS(=O)(=O)c4cccs4)c2)c1=O)CCCC3` [Example 26, N-[3-(2,3-Dioxo-2,3,7,8,9,10-hexahydro-1H-benzo[f]quinoxalin-4-yl)phenyl]-2-thiophenesulfonamide] as the compound, how does the IC50 read?
A: Its IC50 is 1800 nM.

Q: For `O=c1[nH]c2c3c(ccc2n(-c2cccc(NS(=O)(=O)c4cccnc4)c2)c1=O)CCCC3` [Example 27, N-[3-(2,3-Dioxo-2,3,7,8,9,10-hexahydro-1H-benzo[f]quinoxalin-4-yl)phenyl]-3-pyridinesulfonamide hydrochloride], which IC50 is on record?
A: Its IC50 is 3000 nM.

Q: With `O=c1[nH]c2c3c(ccc2n(-c2cccc(NS(=O)(=O)c4cccc5cccnc45)c2)c1=O)CCCC3` [Example 28, N-[3-(2,3-Dioxo-2,3,7,8,9,10-hexahydro-1H-benzo[f]quinoxalin-4-yl)phenyl]-8-quinolinesulfonamide hydrochloride] as the compound, how does the IC50 read?
A: Its IC50 is 1900 nM.

Molecular target: T1, P2X4 receptor
Experiment: not given
Details: disclosed in Non-patent document 8; cited from earlier work

Q: For `Fc1ccc([C@@H]2CCNC[C@H]2COc2ccc3c(c2)OCO3)cc1` [Paroxetine], which P2X4 receptor antagonism is on record?
A: The P2X4 receptor antagonism was “shows P2X4 receptor antagonism”.
